Measured values: ChEMBL document CHEMBL4346762, “Design, synthesis and anticancer activity of constrained sphingolipid-phenoxazine/phenothiazine hybrid constructs targeting protein phosphatase 2A” (Bioorg Med Chem Lett, 2019)

How the values were obtained:
[1] = Inhibition of protein phosphatase 2A in mouse FL5.12 cells assessed as reduction in cell viability incubated for 48 hrs by propidium iodide staining based flow cytometric analysis; settings: FL5.12, 48 h
FL5.12 [2] = test: (§1) Inhibition of protein phosphatase 2A in mouse FL5.12 cells assessed as induction of surface nutrient transporter loss by measuring downregulation of CD98 expression level at 2.5 uM preincubated with PP2A inhibitor calyculin A for 60 mins followed by compound addition and measured after 2 hrs by flow cytometric analysis relative to control; assay type: cell-based; design: scale not given: the % may be the effect or the level left
FL5.12 [3] = test: as §1, with “10” for “2.5”; assay type: cell-based; design: scale not given: the % may be the effect or the level left
FL5.12 [4] = test: Induction of vacuolation in mouse FL5.12 cells assessed as vacuolation score at 2.5 uM preincubated with PP2A inhibitor calyculin A for 60 mins followed by compound addition and measured after 2 hrs by fluorescence microscopic method; assay type: functional
FL5.12 [5] = test: Induction of vacuolation in mouse FL5.12 cells assessed as vacuolation score at 10 uM preincubated with PP2A inhibitor calyculin A for 60 mins followed by compound addition and measured after 2 hrs by fluorescence microscopic method; assay type: functional
FL5.12 [6] = test: as §1, with “40” for “2.5”; assay type: cell-based; design: scale not given: the % may be the effect or the level left
FL5.12 [7] = test: Induction of vacuolation in mouse FL5.12 cells assessed as vacuolation score at 40 uM preincubated with PP2A inhibitor calyculin A for 60 mins followed by compound addition and measured after 2 hrs by fluorescence microscopic method; assay type: functional
Mus musculus = organism: Mus musculus; test: Ratio of IC50 for SH-BC-893 to IC50 for test compound for inhibition of protein phosphatase 2A in mouse FL5.12 cells assessed as reduction in cell viability incubated for 48 hrs by propidium iodide staining based flow cytometric analysis

For CCCCCCCCc1ccc([C@H]2CCN[C@@H]2COCCCCc2cccnc2)cc1.Cl, the IC50 [1] was 2.1 µM, the Activity (FL5.12 [2]) was 40% and the Activity (FL5.12 [3]) was 64%. The Activity (FL5.12 [4]) was 12 and the Activity (FL5.12 [5]) was 11.

With CCCCCCCCc1ccc([C@H]2CCN[C@@H]2COCCCCCN2c3ccccc3Oc3ccccc32)cc1.Cl the IC50 [1] was 8.6 µM, the Activity (FL5.12 [3]) was -3% and the Activity (FL5.12 [6]) was 38%. The Activity (FL5.12 [5]) was 16 and the Activity (FL5.12 [7]) was 66.

Work on CCCCCCCCc1ccc([C@H]2CCN[C@@H]2COCCCC(O)c2cccnc2)cc1.Cl (some centres not stated) yielded an IC50 [1] of 2.4 µM, an Activity (FL5.12 [2]) of 24% and an Activity (FL5.12 [3]) of 51%. For the same compound, the Activity (FL5.12 [4]) was 8 and the Activity (FL5.12 [5]) was 17.

With CCCCCCCCc1ccc([C@H]2CCN[C@@H]2CO)cc1.Cl the IC50 [1] was 1.8 µM, the Activity (FL5.12 [2]) was 32% and the Activity (FL5.12 [3]) was 69%. For the same compound, the Activity (FL5.12 [4]) was 46 and the Activity (FL5.12 [5]) was 60.

In the case of CCCCCCCCc1ccc([C@H]2CCN[C@@H]2COCCCN2c3ccccc3Oc3ccccc32)cc1.Cl, the IC50 [1] is reported as 4.6 µM, the Activity (FL5.12 [2]) is reported as 4% and the Activity (FL5.12 [3]) is reported as 27%. For the same compound, the Activity (FL5.12 [4]) was 2, the Activity (FL5.12 [5]) was 23 and the Ratio IC50 (Mus musculus) was 2 to 3.

CCCCCCCCc1ccc([C@H]2CCN[C@@H]2COCCCCCN2c3ccccc3Sc3ccccc32)cc1.Cl showed an IC50 [1] of 7.5 µM, an Activity (FL5.12 [3]) of -8% and an Activity (FL5.12 [6]) of 29%. For the same compound, the Activity (FL5.12 [5]) was 18 and the Activity (FL5.12 [7]) was 42.

With CCCCCCCCc1ccc([C@H]2CCN[C@@H]2COCCCC(O)c2cnc(OC)nc2OC)cc1.Cl (some centres not stated) the IC50 [1] was 2.7 µM, the Activity (FL5.12 [2]) was 10% and the Activity (FL5.12 [3]) was 60%. The Activity (FL5.12 [4]) was 8 and the Activity (FL5.12 [5]) was 15.

Compound OCCN1CCN(CCCN2c3ccccc3Sc3ccc(Cl)cc32)CC1 [PERPHENAZINE] has an IC50 [1] of 4.8 µM, an Activity (FL5.12 [2]) of 19% and an Activity (FL5.12 [3]) of 58%. The Activity (FL5.12 [4]) was 1 and the Activity (FL5.12 [5]) was 3.

O=S(=O)(N[C@@H]1CCC[C@H](N2c3ccccc3Oc3ccccc32)[C@H]1O)c1ccc(OC(F)(F)F)cc1 gave an IC50 [1] of 15.2 µM, an Activity (FL5.12 [3]) of 7% and an Activity (FL5.12 [6]) of 31%. The Activity (FL5.12 [5]) was 0 and the Activity (FL5.12 [7]) was 11.

For CCCCCCCCc1ccc([C@H]2CCN[C@@H]2COCCCCN2c3ccccc3Oc3ccccc32)cc1.Cl, the IC50 [1] was 5.8 µM, the Activity (FL5.12 [2]) was 5% and the Activity (FL5.12 [3]) was 15%. The Activity (FL5.12 [4]) was 7, the Activity (FL5.12 [5]) was 15 and the Ratio IC50 (Mus musculus) was 2 to 3.
